Measured values from patent US20140228384A1, “ASSAYS AND BIOMARKERS FOR LRRK2” (Genentech, Inc., priority 2011, published 2014).

What was measured:
[1] = target: LRRK2 (Homo sapiens, UniProt Q5S007); experiment: biochemical
[2] = test system: hippocampal neurons derived from LRRK2 BAC transgenic mice; settings: dose-dependent manner

Chain of LRRK2 (Q5S007 whole entry): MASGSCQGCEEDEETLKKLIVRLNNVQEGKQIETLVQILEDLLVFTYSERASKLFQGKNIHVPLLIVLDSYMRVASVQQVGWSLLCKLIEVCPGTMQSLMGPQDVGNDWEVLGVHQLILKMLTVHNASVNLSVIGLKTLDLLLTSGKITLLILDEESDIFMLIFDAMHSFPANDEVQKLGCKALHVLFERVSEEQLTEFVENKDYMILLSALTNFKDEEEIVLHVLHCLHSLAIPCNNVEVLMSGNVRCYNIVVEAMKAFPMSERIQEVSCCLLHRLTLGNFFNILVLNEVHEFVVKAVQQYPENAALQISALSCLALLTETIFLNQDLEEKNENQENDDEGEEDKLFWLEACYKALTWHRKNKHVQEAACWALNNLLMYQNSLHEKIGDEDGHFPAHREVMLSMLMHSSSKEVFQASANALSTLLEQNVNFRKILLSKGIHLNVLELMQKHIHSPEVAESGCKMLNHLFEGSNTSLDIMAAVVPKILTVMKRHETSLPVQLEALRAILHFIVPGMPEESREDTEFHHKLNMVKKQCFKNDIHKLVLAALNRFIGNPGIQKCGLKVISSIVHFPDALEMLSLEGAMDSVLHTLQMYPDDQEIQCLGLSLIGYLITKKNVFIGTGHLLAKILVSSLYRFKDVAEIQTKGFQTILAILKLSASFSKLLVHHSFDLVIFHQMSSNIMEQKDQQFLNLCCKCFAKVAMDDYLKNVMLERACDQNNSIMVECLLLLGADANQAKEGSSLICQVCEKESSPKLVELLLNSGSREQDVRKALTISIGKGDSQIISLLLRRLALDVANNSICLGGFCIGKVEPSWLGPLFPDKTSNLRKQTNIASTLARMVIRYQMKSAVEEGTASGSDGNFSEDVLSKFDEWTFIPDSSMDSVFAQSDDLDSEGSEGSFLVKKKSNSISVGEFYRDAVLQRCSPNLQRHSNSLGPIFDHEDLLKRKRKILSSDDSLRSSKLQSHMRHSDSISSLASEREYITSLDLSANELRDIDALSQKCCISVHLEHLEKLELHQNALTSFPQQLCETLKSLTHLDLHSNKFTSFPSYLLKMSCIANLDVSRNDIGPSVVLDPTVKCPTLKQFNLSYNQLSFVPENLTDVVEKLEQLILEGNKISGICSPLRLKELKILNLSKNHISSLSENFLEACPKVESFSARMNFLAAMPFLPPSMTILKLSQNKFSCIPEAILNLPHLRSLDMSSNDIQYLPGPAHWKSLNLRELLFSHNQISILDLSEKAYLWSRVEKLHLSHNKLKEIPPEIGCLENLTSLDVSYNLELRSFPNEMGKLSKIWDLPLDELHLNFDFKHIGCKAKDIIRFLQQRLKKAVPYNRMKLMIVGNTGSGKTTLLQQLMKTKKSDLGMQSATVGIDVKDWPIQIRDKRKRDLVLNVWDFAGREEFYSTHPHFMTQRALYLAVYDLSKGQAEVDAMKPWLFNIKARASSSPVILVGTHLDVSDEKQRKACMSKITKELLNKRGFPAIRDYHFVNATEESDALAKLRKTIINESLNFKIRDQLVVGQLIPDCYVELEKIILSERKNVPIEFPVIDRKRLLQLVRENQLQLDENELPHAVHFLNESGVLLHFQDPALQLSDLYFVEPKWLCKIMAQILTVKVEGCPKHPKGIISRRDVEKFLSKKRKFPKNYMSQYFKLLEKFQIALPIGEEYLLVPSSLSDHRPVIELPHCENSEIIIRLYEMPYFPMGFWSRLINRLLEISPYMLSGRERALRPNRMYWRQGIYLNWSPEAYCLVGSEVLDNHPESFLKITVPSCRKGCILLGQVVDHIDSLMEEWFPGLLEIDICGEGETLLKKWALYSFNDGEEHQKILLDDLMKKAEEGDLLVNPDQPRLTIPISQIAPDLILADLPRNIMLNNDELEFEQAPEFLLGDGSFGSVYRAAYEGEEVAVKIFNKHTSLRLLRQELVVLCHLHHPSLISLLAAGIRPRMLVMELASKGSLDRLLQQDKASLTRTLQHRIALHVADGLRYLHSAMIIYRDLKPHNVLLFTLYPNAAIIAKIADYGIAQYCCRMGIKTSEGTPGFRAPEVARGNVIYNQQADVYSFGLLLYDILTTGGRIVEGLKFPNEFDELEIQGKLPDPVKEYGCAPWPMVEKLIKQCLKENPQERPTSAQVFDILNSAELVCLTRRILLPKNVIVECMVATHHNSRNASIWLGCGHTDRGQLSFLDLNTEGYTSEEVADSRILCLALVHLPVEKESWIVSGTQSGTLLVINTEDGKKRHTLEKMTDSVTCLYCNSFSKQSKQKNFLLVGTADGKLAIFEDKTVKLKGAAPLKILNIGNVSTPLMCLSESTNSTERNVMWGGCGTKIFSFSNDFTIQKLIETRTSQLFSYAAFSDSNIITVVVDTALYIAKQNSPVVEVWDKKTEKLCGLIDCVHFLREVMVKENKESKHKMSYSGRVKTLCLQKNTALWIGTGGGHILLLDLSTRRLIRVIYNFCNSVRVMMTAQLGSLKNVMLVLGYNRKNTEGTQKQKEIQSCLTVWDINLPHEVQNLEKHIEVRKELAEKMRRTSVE

Ki [1]: ~4 nM
SMILES: CNc1nc(Nc2ccc(C(=O)N3CCOCC3)cc2OC)ncc1C(F)(F)F [G1023, [3-methoxy-4-(4-methylamino-5-trifluoromethyl-pyrimidin-2-ylamino)-phenyl]-morpholin-4-yl-methanone]
neurite outgrowth defect (total neurite length) [2]: reversed neurite outgrowth defect
